Data on 1 compound can be found in publication PMC4702177, “Discovering new mTOR inhibitors for cancer treatment through virtual screening methods and in vitro assays” (Scientific Reports, 2016).

The target of assay [1] is T1, human recombinant mTOR kinase (Homo sapiens, UniProt P42345).
T1 construct: a purified recombinant mTOR fragment (amino acids 1360-2549, CBA104-1KIT from Calbiochem); purchased Calbiochem CBA104-1KIT
The experiment in a line: In vitro mTOR kinase assay (K-LISA ELISA, p70S6K-GST substrate). In kind it is biochemical. On the procedure: The mTOR kinase inhibitory activities of the 41 final virtual hits were determined using an ELISA-based activity assays that utilize a p70S6K-GST fusion protein as a specific mTOR substrate (see the Experimental Section for details). For the initial screening, all the activities were measured at a concentration of 10 μM.
mTOR activity was evaluated using a purified recombinant mTOR fragment (amino acids 1360-2549, CBA104-1KIT from Calbiochem). The K-LISA^TM mTOR activity kit is an ELISA-based activity assay for detection of phosphorylation of a p70S6K-GST fusion protein (a specific mTOR substrate) in the presence of ATP. The assay was optimized for use with mTOR as described in the Calbiochem protocol. The assay takes place in 96-well plates and can be divided into two phases: an mTOR kinase reaction phase and phosphorylated substrate detection phase.
In the kinase reaction phase, the following components were mixed in the same well: 5 μL of a solution containing 5 μg/mL mTOR substrate (recombinant p70S6K-GST fusion protein) in Tris-buffered saline (1 L TBS: sodium chloride 8.8 g, Tris Base 2.4 g, HCl 13 mL, Tween-20 10 ml, ddH2O), 5 μL ATP solution containing 20 mM ATP diluted in kinase assay buffer (pH 7.4, 0.01% Tween 20, 1 mM EDTA, 10 mM MgCl2, 1 mM DTT), […] of human recombinant mTOR kinase at the optimal concentration (80 ng/well) diluted in kinase assay buffer, and 5 μL of serial dilutions of inhibitors diluted in DMSO and kinase assay buffer. For each inhibitor concentration, the assay was run in triplicate. The final reaction volume was 100 μL per well, and samples incubated for 30 min at room temperature.
The kinase reaction was stopped by adding 10 μL kinase stop solution to each well. The phosphorylated substrate was detected using Anti-p70S6K-pT389 antibody, followed by detection with HRP-Antibody Conjugate and TMB Substrate. Then, ELISA stop solution was added to each well to stop the reaction, and relative mTOR inhibition activity was determined by reading the absorbance at dual wavelengths of 450/540 nm.
A general note: In an ELISA, binding on a coated surface is turned into a signal by an enzyme label.

The subject of assay [2] is mTORC1 (phosphorylation of p70S6K and 4E-BP1) in HeLa cells. The experiment in a line: Western blot of mTORC1 activity. In kind it is cell-based, human. To be noted: 2.47 and 5.48 μM. The protocol:
In vitro mTOR kinase assay confirmed that 17 did inhibit mTOR kinase activity (Table 1). The mTOR pathway is frequently activated in human cancers (e.g., HeLa and MCF-7). To assure compound 17 inhibits the mTOR pathway inside the cell, western blotting was employed to check the activity of mTORC1 (Complex 1) and mTORC2 (Complex 2). HeLa cell line was selected for western blot analysis after treatment with compound 17 at 2.47 and 5.48 μM; detailed results are shown in Fig. 8.
mTORC1 activity was evaluated by determining the phosphorylation level of its targets, p70S6K and 4E-BP1, in the HeLa cell line. […] Quantitative of the phosphorylation levels of p70SK6 and 4E-BP1 are […] with the concentration of 17 (Fig. 8).
HeLa cells were cultured in a six-well plate in the presence of compound 17 for 48 h. Samples were prepared by lysing PBS-washed cells with RIPA buffer (Beyotime, Haimen, China) consisting of 1% Nonidet P-40, 0.5% sodium deoxycholate, 0.1% SDS, and 50 mM Tris-HCl, pH 7.4, supplemented with NaF, NaVO4, EDTA and a protease inhibitor cocktail (Roche). Proteins were subjected to SDS-PAGE gel electrophoresis and transferred onto a polyvinylidene difluoride membrane (Hybond-P; GE Healthcare Life Sciences, Piscataway, NJ). […] The densitometry of each band was quantified by FluorChem 8000 (AlphaInnotech, San Leandro, CA).
A general note: Immunoblotting shows a protein as a band on a membrane.

SMILES strings stand for the structures. “And” between values parts separate entries of the source, which are not always exact repeats. Equal entries are not always repeated. A value given as a limit tells only on which side of the number the result lay.

T1 sequence (P42345 1360-2549): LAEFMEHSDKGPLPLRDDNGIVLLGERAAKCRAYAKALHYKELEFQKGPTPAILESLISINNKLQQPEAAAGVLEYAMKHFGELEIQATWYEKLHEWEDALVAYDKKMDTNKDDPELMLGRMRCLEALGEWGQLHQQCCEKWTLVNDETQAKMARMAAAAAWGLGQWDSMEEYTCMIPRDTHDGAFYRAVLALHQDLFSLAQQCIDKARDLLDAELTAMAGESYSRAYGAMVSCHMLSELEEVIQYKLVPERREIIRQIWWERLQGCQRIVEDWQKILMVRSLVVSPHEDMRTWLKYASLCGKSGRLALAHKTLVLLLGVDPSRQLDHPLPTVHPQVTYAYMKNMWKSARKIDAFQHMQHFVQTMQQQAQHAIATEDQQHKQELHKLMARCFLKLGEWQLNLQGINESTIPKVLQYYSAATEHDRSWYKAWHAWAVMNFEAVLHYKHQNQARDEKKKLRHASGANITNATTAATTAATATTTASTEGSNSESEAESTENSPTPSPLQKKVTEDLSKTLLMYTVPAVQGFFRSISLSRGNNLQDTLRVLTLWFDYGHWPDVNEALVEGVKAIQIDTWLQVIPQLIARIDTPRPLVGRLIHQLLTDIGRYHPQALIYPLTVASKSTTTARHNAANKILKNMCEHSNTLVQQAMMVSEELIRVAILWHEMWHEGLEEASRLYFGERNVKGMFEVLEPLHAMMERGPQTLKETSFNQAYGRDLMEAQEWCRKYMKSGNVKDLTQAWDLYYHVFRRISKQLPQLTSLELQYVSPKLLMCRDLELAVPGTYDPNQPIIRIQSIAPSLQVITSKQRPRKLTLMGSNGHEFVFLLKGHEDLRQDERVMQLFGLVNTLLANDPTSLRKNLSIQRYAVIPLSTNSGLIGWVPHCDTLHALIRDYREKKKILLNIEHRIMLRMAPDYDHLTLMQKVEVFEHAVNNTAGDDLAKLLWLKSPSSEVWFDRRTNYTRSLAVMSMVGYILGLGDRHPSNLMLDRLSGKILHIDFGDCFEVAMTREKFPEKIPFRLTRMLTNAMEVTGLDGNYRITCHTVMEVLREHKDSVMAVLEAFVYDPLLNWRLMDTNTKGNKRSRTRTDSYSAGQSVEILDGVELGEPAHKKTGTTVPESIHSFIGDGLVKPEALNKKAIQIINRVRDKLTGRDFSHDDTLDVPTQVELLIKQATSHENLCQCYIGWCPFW

Take `Nc1nn2c(nc(N)c3c(N)n[nH]c32)c1/N=N/c1ccccc1` [Compound 17]: the inhibition at 10 µM in assay [1] (10 μM, triplicate measurements) was 61%. The half-inhibitory concentration (IC50) in assay [1] (mean ± SD of triplicate measurements) is < 10 µM and 7.59 µM. Moreover, in assay [2], the “phosphorylation level of 4E-BP1” value is listed as “suppressed” and the “phosphorylation level of p70S6K” value was “suppressed”.

One may read the inhibition as the relative decrease from the control value, in per cent. By IC50 is commonly meant the concentration that inhibits the measured activity by half.
